# Values of other authors, collected in US20060270611A1, “PEDIATRIC FORMULATION OF TOPIRAMATE” (priority 2005, published 2006).
# Settings: clinical trials of human epilepsy; adjunctive therapy or monotherapy
smiles,measurement,value
"CC1(C)O[C@H]2[C@H]3OC(C)(C)O[C@]3(COS(N)(=O)=O)OC[C@H]2O1 [Topiramate, 2,3:4,5-bis-O-(1-methylethylidene) β-D-fructopyranose sulfamate]",efficacy in treating simple and complex partial seizures and secondarily generalized seizures,effective as adjunctive therapy or as monotherapy
